From patent US8624079B2, “Knockin mouse with a disruption in a PXR gene expressing human PXR” (ITI Scotland Limited, priority 2007, dated 2014)
Entries after “also recorded” stand apart in the source; their conditions may differ. Read-outs that look alike come from different tables or passages of the source.

Tests used:
Cyp3a11 [1] = test: Cyp3a11 protein expression in liver microsomes of treated mice by SDS-PAGE and Western blotting; conditions: for Cyp3a11 expression in liver (Western blot): single injection 0, 1, 10, 50 mg/kg, 48 hours
Description: (§1) Dosing solutions were prepared on the day of administration by adding corn oil to the requisite quantity of test substance and stirring to obtain a solution or fine suspension. The concentration of PCN was 10 mg/ml and Rif 2.5 mg/ml of supplied chemical, without any correction for purity. Records of preparation were retained.
The volume of vehicle and solutions of inducing agents administered was 10 ml/kg bodyweight. This route of administration was chosen for consistency with previously published work. […]
(§2) Quantification of Cyp3a11, Cyp2b10 and PXR protein in liver microsomes of all mice samples was carried out by SDS-PAGE and Western blotting. To detect murine and human PXR protein, an antibody (RF8) was employed. For the identification of Cyp3a and Cyp2b, […] were used, (CH32 and CH4, respectively).

Cyp2b10 [2] = test: Cyp2b10 protein expression of treated mice by SDS-PAGE and Western blotting; conditions: for Cyp2b10 induction (Western blot and PROD activity): CITCO 10 mg/kg; for Cyp2b10 induction profile (Western blot and PROD, liver microsomes): wild-type vs huCAR mice, increasing amounts
Description: as §1
Control animals were administered vehicle (corn oil) daily by intraperitoneal injection. The volume of vehicle and solutions of inducing agents administered was 10 ml/kg bodyweight. This route of administration was chosen for consistency with previously published work. […]
as §2

liver cells = test: BrdU incorporation in liver (hepatic cell proliferation, S-phase labelling index); type: in vivo, mouse; conditions: wild-type and huCAR mice
[3] = system: components of drug metabolism pathways; conditions: inducer of components of drug metabolism pathways; species in which it is known to act more potently; cited from earlier work
Cyp2b10 [4] = test: pentoxyresorufin-O-deethylation (PROD) and BROD activity assay in liver microsomes of treated mice
[5] = Description: For the same animals, plasma levels of alanine aminotransferase (ALT), alkaline phosphatase (ALP) and aspartate aminotransferase (AST) were also measured (see FIG. 40). […] Both compounds were administered at 40 mg/kg.
Plasma levels of alanine aminotransferase (ALT), alkaline phosphatase (ALP) and aspartate aminotransferase (AST) were also measured (see FIG. 46).

Cyp3a11 [6] = conditions: wild-type mice (Ma et al. 2007); cited from earlier work
[7] = Pentobarbitone sleeping test; type: in vivo, mouse; conditions: single ip dose 25 mg/kg
Description: In this experiment, the activity of these transcription factors in combination was determined by measuring the barbiturate induced sleeping time. Sleeping time has been known for many years to be directly proportional to the hepatic cytochrome P450 activity and this activity can be at least in part ascribed to the P450 levels in the liver determined by CAR and PXR function.
Mice were given a single intraperitoneal dose of Narcoren (sodium pentobarbitone; purchased via a Veterinary Consultant; distributed by Merial GmbH, Germany) at 25 mg/kg of body weight. The time taken for the mice to lose, and subsequently to regain, their righting reflex was measured.

cytochrome P450 enzymes = conditions: single ip; for induction of testosterone 16-beta-hydroxylation: 1 mg/kg
Description: The study consisted of 3 animals per group. Control groups consisted of mice treated with either corn oil daily for 4 days or mice administered a single injection of corn oil. The treated mice were dosed with inducing agents as detailed in Table 3.1.
PXR activity was determined by measuring the metabolism of a number of cytochrome P450 substrates which are metabolised to different extents by different cytochrome P450 enzymes. The following assays were performed: • 7-benzyloxyquinoline (BQ) activity was determined in liver microsomes. • Testosterone hydroxylase activity was determined in liver microsomes (LMS HPLC-006). • The specific activities of these reactions was expressed per mg protein as determined using the Lowry assay (LMS Spec-0001).

[8] = wild type mice, TCPOBOP 1 mg/kg

Compound: Clc1ccc(-c2nc3sccn3c2C=NOCc2ccc(Cl)c(Cl)c2)cc1 [CITCO, 6-(4-chlorophenyl)imidazo[2,1-b][1,3]thiazole-5-carbaldehyde O-(3,4-dichlorobenzyl)oxime]
- Cyp3a11 expression in liver (Western blot) (Cyp3a11 [1]; huCAR mice): clearly induced
- Cyp3a11 expression in liver (Western blot) (Cyp3a11 [1]; wild type mice): did not induce
- Cyp2b10 induction (Western blot and PROD activity) (Cyp2b10 [2]; huCAR mice): strong induction
- Cyp2b10 expression in liver (Western blot) (Cyp2b10 [2]; huCAR mice, single injection 0, 1, 10, 50 mg/kg, 48 hours): clearly induced
- Cyp2b10 induction (Western blot and PROD activity) (Cyp2b10 [2]; koPXR mice): Some induction
- Cyp2b10 expression in liver (Western blot) (Cyp2b10 [2]; wild type mice, single injection 0, 1, 10, 50 mg/kg, 48 hours): did not induce
- Cyp2b10 induction (Western blot and PROD activity) (Cyp2b10 [2]; wild-type mice): not substantially induced
- Cyp2b10 induction profile (Western blot and PROD, liver microsomes) (Cyp2b10 [2]): stronger response in huCAR than in the wild-type
- fraction of BrdU positive cells in the liver (liver cells; 20 mg/kg 4 times daily, one day after final dose): elevated counts of BrdU positive liver cells only in huCAR animals, not in the wild-type
- More potent in: [3]: human
- PROD activity (Cyp2b10 [4]; huCAR mice, increasing amounts of CITCO): marked, dose-dependent induction of PROD activity

Compound: Clc1ccccc1C(c1ccccc1)(c1ccccc1)n1ccnc1 [Clotrimazole]
- More potent in: [3]: mouse

Compound: C[C@@H]1C[C@H]2[C@@H]3CCC4=CC(=O)C=C[C@]4(C)[C@@]3(F)[C@@H](O)C[C@]2(C)[C@@]1(O)C(=O)CO [dexamethasone]
- Cyp2b10 expression (Cyp2b10 [2]; mouse, in vivo, 10 mg/kg): induced Cyp2b10 expression in both wild-type and huCAR mice
- Cyp2b10 induction (Western blot), comparison (Cyp2b10 [2]; mouse, in vivo, 10 mg/kg): less pronounced in huCAR than in wild-type mice
- Cyp2b10 expression in liver (Western blot) (Cyp2b10 [2]; mouse, in vivo, 40 mg/kg): still induced
- induction of Cyp2b10 (Western blot) (Cyp2b10 [2]; mouse, in vivo, 60 mg/kg): induced
- mortality ([5]; huPXR mice, dexamethasone 60 mg/kg): One dexamethasone-treated huPXR mouse died
- increase in plasma ALT levels and liver weights ([5]; mouse, in vivo, 30 mg/kg): clearly more pronounced in mice lacking murine PXR
- Cyp2b10 induction (PROD activity), comparison (Cyp2b10 [4]; huCAR vs wild type mice, 10 mg/kg): weaker in huCAR than in wild type mice
- PROD activity (Cyp2b10 [4]; koCAR mice, 40 mg/kg): still induced
- PROD activity (Cyp2b10 [4]; wild-type, huPXR and koPXR mice, 60 mg/kg): corresponding results were obtained

Compound: CC(=O)[C@H]1[C@H](C#N)C[C@H]2[C@@H]3CC=C4C[C@@H](O)CC[C@]4(C)[C@H]3CC[C@@]21C [PCN, 5-Pregnen-3β-ol-20-one-16α-carbonitrile]
- More potent in: [3]: mouse
- induction of Cyp3a11 mRNA (Cyp3a11 [6]): strongly induced

Compound: CCCC(C)C1(CC)C(=O)NC(=O)NC1=O (stereo not shown) [pentobarbitone, sodium pentobarbitone]
- Sleeping time ([7]; PXR/CAR hum (double humanised) male mouse): 34 min
- Sleeping time ([7]; wt male mouse): 21 min

Compound: Clc1cnc(Oc2ccc(Oc3ncc(Cl)cc3Cl)cc2)c(Cl)c1 [TCPOBOP]
- Cyp3a11 expression (Western blot and BQ activity) (Cyp3a11 [1]; [8]): somewhat induced
- Cyp2b10 expression (Western blot and PROD activity) (Cyp2b10 [2]; huCAR mice, TCPOBOP 1 mg/kg): did not significantly induce
- Cyp2b10 induction in liver (Western blot, densitometry) (Cyp2b10 [2]; koCAR mice, 1 mg/kg): no Cyp2b10 was induced
- Cyp2b10 protein expression and PROD activity (Cyp2b10 [2]; koPXR mice, TCPOBOP 1 mg/kg): comparable to wild type
- Cyp2b10 expression (Western blot and PROD activity) (Cyp2b10 [2]; [8]): induced; also recorded: strongly induced
- Cyp2b10 induction profile (Western blot and PROD, liver microsomes) (Cyp2b10 [2]): more strongly in the wild-type than huCAR mice
- induction of testosterone 16-beta-hydroxylation (cytochrome P450 enzymes; huPXR mice): 1.7 fold
- induction of 6-beta-hydroxylation of testosterone (cytochrome P450 enzymes; wild type and huPXR mice, TCPOBOP 0.3 and 1 mg/kg): inducible in both strains of mouse
- induction of testosterone 16-beta-hydroxylation (cytochrome P450 enzymes; wild type mice): approximately 6 fold
- induction of testosterone 16-alpha-hydroxylation (cytochrome P450 enzymes; wild type mice, TCPOBOP 0.3 and 1 mg/kg): significantly induced
- fraction of BrdU positive cells in the liver (liver cells; single dose 3 mg/kg, one day after dose): elevated counts of BrdU positive liver cells only in wild-type animals
- More potent in: [3]: mouse
